Experimental data: patent US20220378794A1 (Sinopia Biosciences, Inc., priority 2019, published 2022)

Tested on: chronic low-dose MPTP lesioned non-human primate model of cognitive impairment
Settings: levodopa 5-20 mg/kg (groups 6-8); in particular shorter delay periods DP1 and DP2; vs vehicle

N[C@@H](Cc1ccc(O)c(O)c1)C(=O)O [levodopa]
accuracy of VDR test: trend toward completing the VDR test with lower accuracy
